Experimental data reported in patent US8623593B1, “GPR 17 agonists and screening assay” (Rheinische Friedrich-Wilhelms-Universität Bonn, priority 2011, dated 2014).

How the values were obtained:
[1] = exposure to air and light; cited from earlier work
[2] = biological target: T1, GPR17 (Homo sapiens, UniProt Q13304); details: reported in WO 2005/103291; cited from earlier work
Target sequence in this assay (Q13304 whole entry, species assumed): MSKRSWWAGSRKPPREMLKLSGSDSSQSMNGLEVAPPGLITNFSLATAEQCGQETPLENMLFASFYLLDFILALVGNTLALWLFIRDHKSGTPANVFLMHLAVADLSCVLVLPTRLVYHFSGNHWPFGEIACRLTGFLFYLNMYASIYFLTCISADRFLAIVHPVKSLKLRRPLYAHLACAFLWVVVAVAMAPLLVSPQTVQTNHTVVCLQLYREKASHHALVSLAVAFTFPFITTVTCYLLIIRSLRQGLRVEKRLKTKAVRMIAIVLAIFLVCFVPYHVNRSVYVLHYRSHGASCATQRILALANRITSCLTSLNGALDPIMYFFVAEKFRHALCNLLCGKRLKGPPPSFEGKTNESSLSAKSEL

[3] = biological target: T1, GPR17; experiment: inhibition of forskolin-stimulated cAMP production in CHO-GPR17 cells; format: cell-based; design: expressed in transfected cells; host or cells: Flp-In T-REx CHO cells, expression induced with doxycycline; details: for activation of GPR17: comparison with RA-II-150, FIG. 2
Excerpt: Two signal transduction pathways that influence the activity of the adenylyl cyclase in oppositional ways can be activated upon receptor activation. Whereas the Gs pathway stimulates the adenylyl cyclase-dependent catalysation of cAMP formation, the Gi pathway inhibits it. The detection of cAMP accumulation is based on the HTRF® technology described above. In this case a monoclonal antibody specific to cAMP was the donor fluorophore while the acceptor fluorophore d2 was fused to cAMP. The analysis of the Gi pathway was based on the direct activation of the adenylyl cyclase, for example, by forskolin. Upon activation, the Gi pathway inhibits the forskolin-dependent activation of the adenylyl cyclase, leading to decreased cAMP accumulation. The inhibition of forskolin-stimulated cAMP accumulation in 1321N1 or CHO cells was performed using the HTRF® cAMP dynamic kit (Cisbio Bioassays, BP 84175, France). Cells were resuspended in assay buffer with 1 mM 3-isobutyl-1-methylxanthine (IBMX) supplemented and dispensed in 384-well microplates at a density of 50,000 cells/well in a volume of 5 μl. After preincubation in assay buffer for 30 min, the cells were stimulated by adding 5 μl of agonist in the respective concentration of forskolin. The final concentration of forskolin was dependent on the cell line which was employed in the assay. Adenylyl cyclase was stimulated with 1 μM forskolin in 1321N1-GPR17 cells and with 10 μM forskolin in CHO-GPR17 cells, followed by incubation for 30 min at room temperature. The reaction was terminated by lysis of the cells, which results from the addition of 5 μl of d2-conjugate followed by the addition of 5 μl of […] (both supplements are diluted in conjugate and lysis buffer). The assay was incubated for 60 min at room temperature and time-resolved FRET signals were measured at an excitation wavelength of 320 nm using the Mithras LB 940 multimode reader (Berthold technologies, D-75323 Bad Wildbad). The evaluation of HTRFR data was performed following the instructions of the kit manufacturer. Data analysis was based on the fluorescence ratio emitted by labeled cAMP (665 nm) over the light emitted by the europium cryptate-labelled anti-cAMP (620 nm). Levels of cAMP were normalised to the amount of cAMP elevated by 10 μM or 1 μM forskolin alone.
Target sequence in this assay (Q13304 29-367): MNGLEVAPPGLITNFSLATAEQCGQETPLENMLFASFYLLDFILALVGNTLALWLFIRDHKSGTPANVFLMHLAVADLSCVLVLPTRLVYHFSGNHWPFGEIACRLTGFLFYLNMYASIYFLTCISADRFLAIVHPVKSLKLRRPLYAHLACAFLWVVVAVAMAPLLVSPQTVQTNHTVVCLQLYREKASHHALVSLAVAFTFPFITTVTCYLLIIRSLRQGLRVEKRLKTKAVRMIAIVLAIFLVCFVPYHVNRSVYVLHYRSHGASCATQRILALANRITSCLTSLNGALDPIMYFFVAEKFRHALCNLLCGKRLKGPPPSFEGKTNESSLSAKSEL

For `NCc1[nH]cc(CCC(=O)O)c1CC(=O)O` [PBG, porphobilinogen], the chemical stability [1] is listed as “rapidly decomposes after exposure to air and light”, the “amounts needed in the assays” value [2] is listed as “mM range” and the “activation of GPR17” value [3] is listed as “failed”.

For `NCC(=O)CCC(=O)O` [5-ALA, 5 amino levulinic acid], the “amounts needed in the assays” value [2] is listed as “three digit micromolar range”, the “less potent as compared with RA-II-150” value ([3]; FIG. 2, forskolin-stimulated cAMP production) is listed as 10.000 fold and the “inhibition of forskolin stimulated adenylylcyclase activity” value ([3]; GPR17 CHO cells, after 5-ALA addition) is listed as “GPR17-independent inhibition”. The “activation of GPR17” value [3] was “confirm the activation”.
